Measured values taken from ChEMBL document CHEMBL4619809, “Chemically Induced Degradation of WEE1 Kinase for Difficult to Treat Diseases” (ACS Med Chem Lett, 2020).

What follows are molecules tested against Protein cereblon/Wee1-like protein kinase (Homo sapiens) (UniProt P30291+Q96SW2) (assay: Protac activity at CRBN/WEE1 in human MOLT4 cells assessed as induction of degradation of WEE1 at 1 uM incubated for 6 hrs by immunoblot analysis relative to control). Conditions: MOLT-4.
Type: cell-based

Protein cereblon/Wee1-like protein kinase (Homo sapiens), sequence (P30291 whole entry, looked up): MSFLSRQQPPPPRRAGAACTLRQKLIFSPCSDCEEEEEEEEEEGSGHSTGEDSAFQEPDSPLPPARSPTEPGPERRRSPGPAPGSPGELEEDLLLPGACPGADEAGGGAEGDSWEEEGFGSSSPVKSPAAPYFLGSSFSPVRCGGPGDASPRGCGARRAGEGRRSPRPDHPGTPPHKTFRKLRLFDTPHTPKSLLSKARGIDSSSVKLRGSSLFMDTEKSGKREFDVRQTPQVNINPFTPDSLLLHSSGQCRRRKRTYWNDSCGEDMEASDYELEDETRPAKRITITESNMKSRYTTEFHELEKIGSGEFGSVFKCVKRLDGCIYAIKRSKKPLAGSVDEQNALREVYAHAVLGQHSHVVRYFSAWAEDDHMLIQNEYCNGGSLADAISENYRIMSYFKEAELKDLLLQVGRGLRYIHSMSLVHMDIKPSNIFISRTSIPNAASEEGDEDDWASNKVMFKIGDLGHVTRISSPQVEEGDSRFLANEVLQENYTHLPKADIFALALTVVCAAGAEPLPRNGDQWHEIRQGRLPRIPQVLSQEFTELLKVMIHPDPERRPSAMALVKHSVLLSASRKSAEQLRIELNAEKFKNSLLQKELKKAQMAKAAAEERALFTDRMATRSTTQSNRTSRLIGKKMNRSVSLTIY
Protein cereblon/Wee1-like protein kinase (Homo sapiens), sequence (Q96SW2 whole entry, looked up): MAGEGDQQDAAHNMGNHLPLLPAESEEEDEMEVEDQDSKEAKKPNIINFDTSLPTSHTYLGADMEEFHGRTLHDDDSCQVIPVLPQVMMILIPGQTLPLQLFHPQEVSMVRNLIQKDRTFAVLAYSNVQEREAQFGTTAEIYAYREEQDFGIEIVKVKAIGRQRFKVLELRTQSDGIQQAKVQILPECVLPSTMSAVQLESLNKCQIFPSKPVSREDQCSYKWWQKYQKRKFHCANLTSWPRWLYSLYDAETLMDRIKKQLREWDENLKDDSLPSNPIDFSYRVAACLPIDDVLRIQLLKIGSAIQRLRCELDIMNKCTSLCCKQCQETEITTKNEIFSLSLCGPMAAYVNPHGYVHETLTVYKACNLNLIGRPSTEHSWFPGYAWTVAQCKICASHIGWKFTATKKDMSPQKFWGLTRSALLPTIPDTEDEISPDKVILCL

Compound | Activity
C=CCn1c(=O)c2cnc(Nc3ccc(N4CCN(CCCNc5cccc6c5C(=O)N(C5CCC(=O)NC5=O)C6=O)CC4)cc3)nc2n1-c1cccc(C(F)(F)F)n1 (stereo not given) | > 50%
C=CCn1c(=O)c2cnc(Nc3ccc(N4CCN(C(=O)CCOCCOCCNc5cccc6c5C(=O)N(C5CCC(=O)NC5=O)C6=O)CC4)cc3)nc2n1-c1cccc(C(C)(C)O)n1 (stereo not given) | > 50%
C=CCn1c(=O)c2cnc(Nc3ccc(N(C)CCCCNc4cccc5c4C(=O)N(C4CCC(=O)NC4=O)C5=O)cc3)nc2n1-c1cccc(C(C)(C)O)n1 (stereo not given) | > 50%
C=CCn1c(=O)c2cnc(Nc3ccc(N4CCN(C(=O)CCOCCOCCNc5cccc6c5C(=O)N(C5CCC(=O)NC5=O)C6)CC4)cc3)nc2n1-c1cccc(C(C)(C)O)n1 (stereo not given) | 25 to 50%
C=CCn1c(=O)c2cnc(Nc3ccc(N4CCN(C(=O)CCOCCOCCOCCN5CCN(Cc6ccc(COc7cccc8c7CN([C@H]7CCC(=O)NC7=O)C8=O)cc6)CC5)CC4)cc3)nc2n1-c1cccc(C(C)(C)O)n1 | > 50%
C=CCn1c(=O)c2cnc(Nc3ccc(N4CCN(CCCNc5cccc6c5C(=O)N(C5CCC(=O)NC5=O)C6=O)CC4)cc3)nc2n1-c1cccc(OC)n1 (stereo not given) | > 50%
C=CCn1c(=O)c2cnc(Nc3ccc(N4CCN(C(=O)CCOCCNc5cccc6c5C(=O)N(C5CCC(=O)NC5=O)C6=O)CC4)cc3)nc2n1-c1cccc(C(C)(C)O)n1 (stereo not given) | > 50%
C=CCn1c(=O)c2cnc(Nc3ccc(N4CCN(CCCNC(=O)CCOCCOCCNc5cccc6c5C(=O)N(C5CCC(=O)NC5=O)C6=O)CC4)cc3)nc2n1-c1cccc(C(C)(C)O)n1 (stereo not given) | > 50%
C=CCn1c(=O)c2cnc(Nc3ccc(N4CCN(CCCNC(=O)CCOCCOCCOCCOCCNc5cccc6c5C(=O)N(C5CCC(=O)NC5=O)C6=O)CC4)cc3)nc2n1-c1cccc(C(C)(C)O)n1 (stereo not given) | > 50%
C=CCn1c(=O)c2cnc(Nc3ccc(N4CCN(CCCNc5cccc6c5C(=O)N(C5CCC(=O)NC5=O)C6=O)CC4)cc3)nc2n1-c1cccc(C(C)(C)O)n1 (stereo not given) | > 50%
